Test results: US20150065456A1, “AGENT FOR TREATMENT AND PREVENTION OF CANCER” (Daiichi Sankyo Company, Limited, priority 2013, published 2015)
Where two headings read alike, the source gives them in different places.

Experiments:
[1] = monkeys; cited from earlier work
[2] = cited from earlier work
[3] = tested on: subjects with symptomatic venous thromboembolism (VTE); test: Hokusai VTE phase 3 clinical study: investigator-reported malignancies clinically evident post-randomization; type: in vivo, human; conditions: for All Subjects with a Malignancy Event, HR: edoxaban vs warfarin, Cox proportional hazards model
Procedure: The study was a randomized, double-blind, clinical study, in which subjects with symptomatic venous thromboembolism (VTE), which included PE, with or without deep venous thrombosis (DVT), or DVT only, were treated with either edoxaban or warfarin, a Vitamin K antagonist, which is an indirect inhibitor of coagulation. […] The subjects participating in the study were adult male and female patients presenting with acute, symptomatic DVT involving popliteal, femoral, or ileac veins, or PE requiring anti-thrombotic therapy. Patients with various types of cancer were among the subjects who were treated in this study, so long as long term treatment with heparin was not anticipated as a treatment regimen for such patients. This clinical study is named Hokusai-VTE and is the largest single phase 3 clinical study in the treatment and prevention of recurrence of VTE using an FXa inhibitor such as edoxaban. More than 8,250 patients were enrolled in the study from more than 400 clinical sites across 38 countries worldwide. The Hokusai-VTE clinical study was designed to reflect clinical practice, using a standard heparin lead-in and providing a flexible treatment duration of three, six or twelve months. This study design allowed the evaluation of patients with a broad range of risks, including patients with moderate or severe conditions of PE and DVT. […] (See, Example 1, infra).
The study (Hokusai VTE Clinical Study) constituted a phase 3, randomized, double-blind, double-dummy, parallel-group, multi-center, multi-national study for the evaluation of efficacy and safety of (LMW) heparin/edoxaban versus (LMW) heparin/warfarin in subjects with symptomatic deep-vein thrombosis and/or pulmonary embolism. The study indication related to the reduction of the risk of symptomatic recurrent venous thromboembolic complications in patients with acute symptomatic deep vein thrombosis (DVT) and/or pulmonary embolism (PE). […] Accordingly, the nature of the study was the use of edoxaban as direct inhibitor of Factor Xa in the treatment of VTE.
Following stratification and treatment allocation as described above, all patients were randomized to either a standard of care (SOC) treatment regimen, i.e., heparin+warfarin, until the international normalized ratio (INR) was between 2-3, followed by warfarin alone; or an edoxaban treatment regimen, i.e., heparin for 5 days followed by edoxaban (as the free base) at a dose of 60-mg QD (or 30-mg QD, in the low exposure group). This study aimed to treat all patients for the entire 12 month period following randomization. Ultimately, the evolving nature of the patient's clinical status and changes in the risk/benefit over time determined the length of treatment for a given patient. Irrespective of actual treatment duration, all patients were followed for the entire 12 months after randomization.
Edoxaban was administered in 30 and 60 mg dose-strengths in tablet form. Warfarin was administered in 1, 2.5 and 5 mg dose-strengths. Matching placebos were used for each of the test drugs. Edoxaban and warfarin were administered orally (PO). Enoxaparin was administered by subcutaneous (SC) injection.
The study was an event-driven, Phase 3, multi-national, multi-center, randomized, double-blind, matching placebo, parallel-group non-inferiority study for efficacy. The total study period after randomization was 12 months in duration. Ideally, all subjects remained on study treatment throughout this period. However, mitigating factors related to the subject's clinical status could influence the total duration of treatment a given subject actually received (See, Treatment Arms, below). Nevertheless, all subjects were administered a minimum of three months' treatment consistent with current ACCP Guidelines.

[4] = rats; cited from earlier work
[5] = Overall Study Period (up to 12 months)

CN1CCc2nc(C(=O)N[C@@H]3C[C@@H](C(=O)N(C)C)CC[C@@H]3NC(=O)C(=O)Nc3ccc(Cl)cn3)sc2C1 [Edoxaban]
oral bioavailability [1]: orally bioavailable
safety and tolerability ([2]; doses of up to 90-mg per day): generally safe and well tolerated
oral bioavailability ([2]; human subjects): orally bioavailable
Kaplan-Meier cumulative incidence (%) of new or recurrent malignancies versus warfarin-treated subjects ([3]; FIG. 1, treatment +30 days study period, 390 days from initial study drug administration): significant decrease
Kaplan-Meier cumulative incidence (%) of new or recurrent malignancies versus warfarin-treated subjects ([3]; FIG. 2, overall study period, about 360 days from initial study drug administration): significant decrease
All Subjects with a Malignancy Event, (%) ([3]; On-Treatment Study Period): (1.6) %
Leukemia, Lymphoma, and Other Blood Malignancies, (%) ([3]; On-Treatment Study Period): (<0.1) %
Malignancy diagnosed as a result of work-up for anemia or bleeding: No, (%) ([3]; On-Treatment Study Period): (1.4) %
Malignancy diagnosed as a result of work-up for anemia or bleeding: Yes, (%) ([3]; On-Treatment Study Period): (0.2) %
Solid Tumor, (%) ([3]; On-Treatment Study Period): (1.5) %
All Subjects with a Malignancy Event, HR ([3]; On-Treatment Study Period): 0.73
All Subjects with a Malignancy Event, (%) [3, 5]: (2.8) %
Leukemia, Lymphoma, and Other Blood Malignancies, (%) [3, 5]: (0.2) %
Malignancy diagnosed as a result of work-up for anemia or bleeding: No, (%) [3, 5]: (2.2) %
Malignancy diagnosed as a result of work-up for anemia or bleeding: Yes, (%) [3, 5]: (0.6) %
Solid Tumor, (%) [3, 5]: (2.7) %
All Subjects with a Malignancy Event, HR ([3]; Overall Study Period): 0.85
All Subjects with a Malignancy Event, (%) ([3]; Treatment+30 Days Study Period): (2.4) %
Leukemia, Lymphoma, and Other Blood Malignancies, (%) ([3]; Treatment+30 Days Study Period): (0.1) %
Malignancy diagnosed as a result of work-up for anemia or bleeding: No, (%) ([3]; Treatment+30 Days Study Period): (1.8) %
Malignancy diagnosed as a result of work-up for anemia or bleeding: Yes, (%) ([3]; Treatment+30 Days Study Period): (0.6) %
Solid Tumor, (%) ([3]; Treatment+30 Days Study Period): (2.3) %
All Subjects with a Malignancy Event, HR ([3]; Treatment+30 Days Study Period): 0.84
oral bioavailability [4]: orally bioavailable

CC(=O)CC(c1ccccc1)c1c(O)c2ccccc2oc1=O (stereo not drawn) [Warfarin, warfarin, reference compound]
All Subjects with a Malignancy Event, (%) ([3]; On-Treatment Study Period): 2.2%
Leukemia, Lymphoma, and Other Blood Malignancies, (%) ([3]; On-Treatment Study Period): 0.1%
Malignancy diagnosed as a result of work-up for anemia or bleeding: No, (%) ([3]; On-Treatment Study Period): 1.9%
Malignancy diagnosed as a result of work-up for anemia or bleeding: Yes, (%) ([3]; On-Treatment Study Period): 0.2%
Solid Tumor, (%) ([3]; On-Treatment Study Period): 2.0%
All Subjects with a Malignancy Event, (%) [3, 5]: 3.3%
Leukemia, Lymphoma, and Other Blood Malignancies, (%) [3, 5]: 0.2%
Malignancy diagnosed as a result of work-up for anemia or bleeding: No, (%) [3, 5]: 2.8%
Malignancy diagnosed as a result of work-up for anemia or bleeding: Yes, (%) [3, 5]: 0.5%
Solid Tumor, (%) [3, 5]: 3.1%
All Subjects with a Malignancy Event, (%) ([3]; Treatment+30 Days Study Period): 2.9%
Leukemia, Lymphoma, and Other Blood Malignancies, (%) ([3]; Treatment+30 Days Study Period): 0.2%
Malignancy diagnosed as a result of work-up for anemia or bleeding: No, (%) ([3]; Treatment+30 Days Study Period): 2.4%
Malignancy diagnosed as a result of work-up for anemia or bleeding: Yes, (%) ([3]; Treatment+30 Days Study Period): 0.5%
Solid Tumor, (%) ([3]; Treatment+30 Days Study Period): 2.6%
